Assay results published in PubChem BioAssay (NCI).
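1) Cells in 96-well plates. 2) Compound, 48 h, 5 concentrations. 3) Linear interpolation between surrounding doses. 4) Unreached endpoint = highest concentration. TGI marks complete inhibition of growth.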

Key:
Assay in all cases: inhibition of tumour cell growth, NCI panel, 48 h
[1] = system: 786-0 renal
[2] = system: OVCAR-3 ovarian
[3] = system: SK-MEL-2 melanoma
[4] = system: RXF 393 renal
[5] = system: OVCAR-8 ovarian
[6] = system: HT29 colon
[7] = system: OVCAR-4 ovarian
[8] = system: HCT-15 colon
[9] = system: UACC-62 melanoma
[10] = system: COLO 205 colon
[11] = system: SR leukemia
[12] = system: SK-OV-3 ovarian
[13] = system: SNB-75 CNS
[14] = system: NCI-H23 lung
[15] = system: U251 CNS
[16] = system: EKVX NSCLC
[17] = system: HOP-92 NSCLC
[18] = system: MDA-MB-435
[19] = system: MCF7 breast

Structure (SMILES) | TGI [1] | TGI [2] | TGI [3] | TGI [4] | TGI [5] | TGI [6] | TGI [7] | TGI [8] | TGI [9] | TGI [10] | TGI [11] | TGI [12] | TGI [13] | TGI [14] | TGI [15] | TGI [16] | TGI [17] | TGI [18] | TGI [19]
CC1OC(OP(=O)(OCc2ccccc2)OCc2ccccc2)C(OC(=O)c2ccccc2)C(OC(=O)c2ccccc2)C1I (configuration not stated) | > 100 µM | > 100 µM | > 100 µM | 76.9 µM | > 100 µM | > 100 µM | > 100 µM | > 100 µM | > 100 µM | 84.8 µM | 80.7 µM | > 100 µM | 68.1 µM | > 100 µM | > 100 µM | > 100 µM |  |  | 
C[C@H](NC(=O)OC1C2C=CC(O)C1CC2)c1ccccc1 (some centres not stated) | > 100 µM | > 100 µM | > 100 µM | > 100 µM | > 100 µM |  | > 100 µM | 33.6 µM | > 100 µM | > 100 µM | 46.2 µM | > 100 µM | > 100 µM | > 100 µM | > 100 µM | > 100 µM |  |  | 
CCOc1ccc(NC(=O)C2=C(C)NC(C)=C(C(=O)Nc3ccc(OCC)cc3)C2c2ccc([N+](=O)[O-])cc2)cc1 | > 100 µM | > 100 µM | 45.7 µM | > 100 µM | > 100 µM | 86 µM | > 100 µM |  |  | 53.3 µM |  | > 100 µM | > 100 µM | > 100 µM | > 100 µM | > 100 µM | 58.6 µM |  | 
O=c1[nH]c2ccc(CC(=S)N3CCN(c4ccccc4)CC3)cc2s1 | > 100 µM | > 100 µM | > 100 µM | 46.4 µM | 82 µM | > 100 µM |  | > 100 µM | > 100 µM | > 100 µM | > 100 µM | 44.9 µM |  | > 100 µM | 21.2 µM | > 100 µM |  | > 100 µM | > 100 µM
N#Cc1nn(-c2ccc(Cl)cc2)c(N)c2c(=N)n3nc(-c4ccccc4)cc3nc12 | > 100 µM | > 35.5 µM | > 20.7 µM | 76.8 µM | > 100 µM | > 32.8 µM |  | > 100 µM | > 35.7 µM |  | 10.7 µM | 29.3 µM | > 68.4 µM | > 51.9 µM | > 55.8 µM | > 100 µM |  |  | 
CC(=O)OCCOCNC(=S)N/N=C(\C)c1ccco1 | > 100 µM | > 100 µM | > 100 µM | > 100 µM | > 100 µM | > 100 µM | > 100 µM | > 100 µM | > 100 µM | > 100 µM |  | > 100 µM | > 100 µM | > 100 µM | > 100 µM | > 100 µM |  |  | 
CCC(=O)O[C@@H]1C2C(OC(C)=O)C34COC(C)([C@@H]3C3C(C[C@]3(C)OC(C)=O)[C@@H](OC(=O)c3ccccc3)C4=O)[C@H](OC(C)=O)[C@@]2(OC(C)=O)C[C@@H]1C (some centres not stated) | 29.2 µM | 82.7 µM | > 100 µM |  | > 100 µM | > 100 µM | 44.7 µM | 29.5 µM | > 100 µM | > 100 µM | > 100 µM | 83.1 µM | 12.4 µM | 45 µM | 46 µM | > 100 µM | 40.8 µM |  | 
O=Cc1cc(O)c(O)c(O)c1-c1c(C=O)cc(O)c(O)c1O | > 100 µM | > 100 µM | > 100 µM |  | > 100 µM | > 100 µM | > 100 µM | > 100 µM | > 100 µM | > 100 µM | > 100 µM | > 100 µM | > 100 µM | > 100 µM | > 100 µM | > 100 µM |  |  | 
CCCCCCCCCCCCCC(=O)OCC1OC(OC)C(NC(=O)N(CCCl)N=O)C(O)C1O (configuration not stated) | 17 µM | 53.2 µM | 71.2 µM | 32.1 µM | 61.1 µM | 50.4 µM | 50.7 µM | > 100 µM | 20.1 µM | 98.5 µM | 26.7 µM |  | 73.5 µM | 28.6 µM | 52.4 µM |  |  |  | 
CCOC(=O)[C@H]1Nc2ccc(O)cc2C2c3ccccc3CC21 (some centres not stated) | > 100 µM | 91.8 µM | > 100 µM | 91.9 µM | > 100 µM | > 100 µM | > 100 µM | > 100 µM | > 100 µM | > 100 µM |  |  | > 100 µM | > 100 µM | > 100 µM | > 100 µM |  |  | 
Cc1c(Cl)cccc1NC(=O)C(=O)C1C(=O)NC(=O)NC1=O | > 100 µM | > 100 µM | > 100 µM | > 100 µM | > 100 µM | > 100 µM | > 100 µM | > 100 µM | > 100 µM | > 100 µM | > 100 µM | > 100 µM | > 100 µM | > 100 µM | > 100 µM | > 100 µM | > 100 µM |  | 
OC(Cn1cncn1)(Cn1cncn1)c1ccc(Cl)cc1Cl | > 100 µM | > 100 µM | > 100 µM | > 100 µM | > 100 µM | > 100 µM | > 100 µM | > 100 µM | > 100 µM | > 100 µM | > 100 µM | > 100 µM | > 100 µM | > 100 µM | > 100 µM |  | > 100 µM |  | 
